Consider 31 compounds from ChEMBL document CHEMBL3745617 (J Med Chem, 2015).

Molecules are shown by their SMILES.

One data set deals with MV4-11. Nature of the data set: Antiproliferative activity against human MV4-11 cells after 72 hrs by CelltiterGlo assay. Type of data set: functional. The note with it: MV4-11, 72 h.
Data set [1] relates to Receptor-type tyrosine-protein kinase FLT3 (Homo sapiens), P36888 [UNDEFINED MUTATION]. Briefly: Inhibition of FLT3 ITD mutant (unknown origin) expressed in BaF3 cells assessed as inhibition of cell proliferation after 72 hrs by CelltiterGlo assay. The class given is cell-based.
Data set [2] is described as follows: Cytotoxicity against mouse BAF3 cells assessed as cell proliferation after 72 hrs by CelltiterGlo assay. The class given is cell-based.

Chain of Receptor-type tyrosine-protein kinase FLT3 (Homo sapiens), P36888 [UNDEFINED MUTATION] (P36888 whole entry, looked up, stated change not applied): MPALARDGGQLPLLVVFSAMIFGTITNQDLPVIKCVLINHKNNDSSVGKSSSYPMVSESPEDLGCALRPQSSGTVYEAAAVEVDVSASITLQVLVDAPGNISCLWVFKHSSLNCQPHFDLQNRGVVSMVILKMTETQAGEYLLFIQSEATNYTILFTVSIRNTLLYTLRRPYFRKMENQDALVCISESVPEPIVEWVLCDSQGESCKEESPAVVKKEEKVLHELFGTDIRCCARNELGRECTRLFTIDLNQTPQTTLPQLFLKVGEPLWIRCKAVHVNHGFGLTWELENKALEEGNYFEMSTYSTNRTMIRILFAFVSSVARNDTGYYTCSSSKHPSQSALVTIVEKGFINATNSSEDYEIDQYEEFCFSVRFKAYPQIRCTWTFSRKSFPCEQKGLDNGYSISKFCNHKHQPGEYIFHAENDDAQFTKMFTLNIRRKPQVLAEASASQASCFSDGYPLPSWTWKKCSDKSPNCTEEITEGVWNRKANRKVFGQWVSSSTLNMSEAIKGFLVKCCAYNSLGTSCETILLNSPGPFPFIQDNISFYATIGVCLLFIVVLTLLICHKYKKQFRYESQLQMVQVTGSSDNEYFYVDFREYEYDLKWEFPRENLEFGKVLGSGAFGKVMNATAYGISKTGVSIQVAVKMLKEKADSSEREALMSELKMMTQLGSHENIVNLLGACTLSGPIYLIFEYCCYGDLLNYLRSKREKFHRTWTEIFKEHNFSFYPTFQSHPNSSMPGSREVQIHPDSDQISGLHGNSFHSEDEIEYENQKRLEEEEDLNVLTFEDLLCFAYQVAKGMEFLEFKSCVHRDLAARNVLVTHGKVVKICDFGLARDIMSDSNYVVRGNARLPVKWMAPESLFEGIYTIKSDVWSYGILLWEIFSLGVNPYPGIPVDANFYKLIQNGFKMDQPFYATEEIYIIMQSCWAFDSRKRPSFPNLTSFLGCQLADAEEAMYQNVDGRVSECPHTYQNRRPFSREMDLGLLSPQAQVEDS

As to `CC(C)(C)CC(=O)N1CCC[C@@H](n2nc(-c3ccc(Oc4ccccc4)cc3)c3c(N)ncnc32)C1`, the GI50 was 2400 nM in the data set with MV4-11 and 460 nM in data set [1]. Moreover, the GI50 at 72 h in data set [2] was found to be 4600 nM.
For the compound `CC[C@@H](C)[C@@H](N)C(=O)N1CCC[C@@H](n2nc(-c3ccc(Oc4ccccc4)cc3)c3c(N)ncnc32)C1`, the values for the GI50 (in the data set with MV4-11; in data set [1]) were 120 nM and 88 nM, respectively. Also, the GI50 at 72 h in data set [2] was found to be 1700 nM.
The corresponding values for `CC(C)[C@@H](N)C(=O)N1CCC[C@@H](n2nc(-c3ccc(Oc4ccccc4)cc3)c3c(N)ncnc32)C1` are 27 nM, 17 nM and 1400 nM.
Taken in the same sequence, the figures for `CN(C)CC(=O)N1CCC[C@H](n2nc(-c3ccc(Oc4ccccc4)cc3)c3c(N)ncnc32)C1` were 280 nM, 120 nM and 5800 nM.
The corresponding values for `CCS(=O)(=O)N1CCC[C@@H](n2nc(-c3ccc(Oc4ccccc4)cc3)c3c(N)ncnc32)C1` are 570 nM, 140 nM and 4000 nM.
Consider `CC(=O)N1CCC[C@@H](n2nc(-c3ccc(Oc4ccccc4)cc3)c3c(N)ncnc32)C1`, for which the GI50 in the data set on MV4-11 was found to be 350 nM; in data set [1], 70 nM. In addition, the GI50 at 72 h in data set [2] came to 5500 nM.
In the case of `CN(C)CC(=O)N1CC[C@@H](n2nc(-c3ccc(Oc4ccccc4)cc3)c3c(N)ncnc32)C1`, the GI50 in the data set with MV4-11 is 83 nM; in data set [1] it was 41 nM. For the same compound, in data set [2], the GI50 at 72 h worked out at 8420 nM.
As for `CN1CCN(CC(=O)N2CCC[C@@H](n3nc(-c4ccc(Oc5ccccc5)cc4)c4c(N)ncnc43)C2)CC1`, the GI50 came out at 230 nM in the data set on MV4-11 and 93 nM in data set [1]. Besides, in data set [2], the GI50 at 72 h was found to be 2300 nM.
The corresponding values for `CC(C)C[C@@H](N)C(=O)N1CCC(n2nc(-c3ccc(Oc4ccccc4)cc3)c3c(N)ncnc32)CC1` are 210 nM, 75 nM and 590 nM.
As to `C=CC(=O)N1CCC[C@@H](n2nc(-c3ccc(Oc4ccccc4)cc3)c3c(N)ncnc32)C1` [IBRUTINIB], the 50% growth inhibitory concentration (GI50) in data set [1] turned out to be 120 nM. Also, in data set [2], the GI50 at 72 h was > 10000 nM.
For the compound `CCC(C)(C)C(=O)N1CCC[C@@H](n2nc(-c3ccc(Oc4ccccc4)cc3)c3c(N)ncnc32)C1`, the figures for the GI50 (in the data set on MV4-11; in data set [1]) were 2400 nM and 260 nM, respectively. Besides, in data set [2], the GI50 at 72 h was 4500 nM.
Take `Nc1ncnc2c1c(-c1ccc(Oc3ccccc3)cc1)nn2[C@@H]1CCCN(C(=O)CC2CC2)C1`: the GI50 in the data set with MV4-11 came out at 410 nM; in data set [1], 82 nM. Besides, in data set [2], the GI50 at 72 h stood at 3600 nM.
Take `CN(C)CC(=O)N1CCC(n2nc(-c3ccc(Oc4ccccc4)cc3)c3c(N)ncnc32)CC1`: the GI50 in the data set with MV4-11 worked out at 110 nM; in data set [1], 75 nM. Further, in data set [2], the GI50 at 72 h was 3650 nM.
Taken in the same sequence, the figures for `CC(C)C[C@@H](N)C(=O)N1CC[C@@H](n2nc(-c3ccc(Oc4ccccc4)cc3)c3c(N)ncnc32)C1` were 120 nM, 41 nM and 2150 nM.
In the case of `Nc1ncnc2c1c(-c1ccc(Oc3ccccc3)cc1)nn2[C@@H]1CCCN(C(=O)C2CC2)C1`, the GI50 was determined as 6500 nM with MV4-11 and 1400 nM in data set [1]. In data set [2], the GI50 at 72 h was > 10000 nM.
The corresponding values for `C[C@@H](N)C(=O)N1CCC[C@@H](n2nc(-c3ccc(Oc4ccccc4)cc3)c3c(N)ncnc32)C1` are 54 nM, 22 nM and 3800 nM.
Taken in the same sequence, the figures for `NCC(=O)N1CCC[C@@H](n2nc(-c3ccc(Oc4ccccc4)cc3)c3c(N)ncnc32)C1` were 22 nM, 7 nM and 3800 nM.
Taken in the same sequence, the figures for `CC(C)(C)C(=O)N1CCC[C@@H](n2nc(-c3ccc(Oc4ccccc4)cc3)c3c(N)ncnc32)C1` were > 10000 nM, 1800 nM and > 10000 nM.
As for `CCCC(=O)N1CCC[C@@H](n2nc(-c3ccc(Oc4ccccc4)cc3)c3c(N)ncnc32)C1`, the GI50 worked out at 1200 nM in the data set on MV4-11 and 450 nM in data set [1]. The GI50 at 72 h in data set [2] was > 10000 nM.
Taken in the same sequence, the figures for `CS(=O)(=O)N1CCC[C@@H](n2nc(-c3ccc(Oc4ccccc4)cc3)c3c(N)ncnc32)C1` were 170 nM, 48 nM and > 10000 nM.
On to `C=CC(=O)N1CCC[C@@H](n2nc(-c3ccc(/C=C/c4ccccc4)cc3)c3c(N)ncnc32)C1`, for which the figures for the GI50 (with MV4-11; in data set [1]) were > 10000 nM and 1800 nM, respectively. Further, in data set [2], the GI50 at 72 h was > 10000 nM.
`CCCS(=O)(=O)N1CCC[C@@H](n2nc(-c3ccc(Oc4ccccc4)cc3)c3c(N)ncnc32)C1`: the GI50 in the data set with MV4-11 turned out to be 760 nM; in data set [1] it was 160 nM. In addition, the GI50 at 72 h in data set [2] is 8600 nM.
The corresponding values for `CS(=O)(=O)N1CCC(n2nc(-c3ccc(Oc4ccccc4)cc3)c3c(N)ncnc32)CC1` are 630 nM, 190 nM and > 10000 nM.
Turning to `CN1CCC(C(=O)N2CCC[C@@H](n3nc(-c4ccc(Oc5ccccc5)cc4)c4c(N)ncnc43)C2)CC1`, the GI50 with MV4-11 amounted to 160 nM; in data set [1] it was 77 nM. Moreover, the GI50 at 72 h in data set [2] worked out at 5000 nM.
Taken in the same sequence, the figures for `CS(=O)(=O)N1CC[C@@H](n2nc(-c3ccc(Oc4ccccc4)cc3)c3c(N)ncnc32)C1` were 420 nM, 130 nM and > 10000 nM.
The corresponding values for `CC(O)[C@@H](N)C(=O)N1CCC[C@@H](n2nc(-c3ccc(Oc4ccccc4)cc3)c3c(N)ncnc32)C1` (some centres not stated) are 64 nM, 22 nM and 3900 nM.
Taken in the same sequence, the figures for `CC(C)C[C@@H](N)C(=O)N1CCC[C@@H](n2nc(-c3ccc(Oc4ccccc4)cc3)c3c(N)ncnc32)C1` were 32 nM, 5 nM and 1300 nM.
As to `NCCC(=O)N1CCC[C@@H](n2nc(-c3ccc(Oc4ccccc4)cc3)c3c(N)ncnc32)C1`, the figures for the GI50 (with MV4-11; in data set [1]) were 750 nM and 390 nM, respectively. Moreover, in data set [2], the GI50 at 72 h was > 10000 nM.
Regarding `CCC(=O)N1CCC[C@@H](n2nc(-c3ccc(Oc4ccccc4)cc3)c3c(N)ncnc32)C1`, the GI50 in the data set with MV4-11 is 130 nM; in data set [1], 28 nM. The GI50 at 72 h in data set [2] came to 3800 nM.
The corresponding values for `NCC(=O)N1CC[C@@H](n2nc(-c3ccc(Oc4ccccc4)cc3)c3c(N)ncnc32)C1` are 180 nM, 80 nM and 7590 nM.
In the case of `Nc1ncnc2c1c(-c1ccc(Oc3ccccc3)cc1)nn2[C@@H]1CCCN(C(=O)[C@H](N)CO)C1`, the GI50 is 61 nM in the data set on MV4-11 and 46 nM in data set [1]. Besides, in data set [2], the GI50 at 72 h worked out at 6500 nM.
